Like-named read-outs stand apart in the source and are kept apart here.
How the values were obtained:
[1] = biological target: T1, α-Glucosidase from recombinant yeast (Saccharomyces cerevisiae, UniProt P53341); test: biochemical; type: biochemical; details: for Inhibitory score: 1/IC50, Table 4, S4
T1 construct: purchased Shanghai yuanye Bio-Technology Co. Ltd; host or cells: recombinant yeast
Method: Fatty acids and their derivates were diluted in 0.1 M, pH = 6.9 phosphate buffer with 0.5% (v/v) DMSO as cosolvent, to prepare […] sample solutions. 50 μL sample solution and 100 μL 0.5 U α-glucosidase (prepared in the same phosphate buffer) were added into 1.5-mL plastic tubes, incubated at 37 °C, 10 min. Then, 50 μL 5 mM α-PNPG (prepared in the same buffer) was added into the plastic tube, incubated for another 10 min at 37 °C. At the end, 1 M Na2CO3 was added to terminate the reaction.
The Inhibitory score measures the inhibitory intensity of each sample on α-glucosidase, calculated by 1/IC50. Data were subjected to the one-way ANOVA analysis by SPSS 23.0, shown as mean ± SD (n = 3).

[2] = system: α-glucosidase; details: result in words; ref Paul et al. ([2010]); cited from earlier work
[3] = 0.1 M phosphate buffer pH 6.9, 0.5% DMSO, 37 °C, α-PNPG, mean ± SD (n = 3), read-out: IC50

T1 sequence (P53341 whole entry): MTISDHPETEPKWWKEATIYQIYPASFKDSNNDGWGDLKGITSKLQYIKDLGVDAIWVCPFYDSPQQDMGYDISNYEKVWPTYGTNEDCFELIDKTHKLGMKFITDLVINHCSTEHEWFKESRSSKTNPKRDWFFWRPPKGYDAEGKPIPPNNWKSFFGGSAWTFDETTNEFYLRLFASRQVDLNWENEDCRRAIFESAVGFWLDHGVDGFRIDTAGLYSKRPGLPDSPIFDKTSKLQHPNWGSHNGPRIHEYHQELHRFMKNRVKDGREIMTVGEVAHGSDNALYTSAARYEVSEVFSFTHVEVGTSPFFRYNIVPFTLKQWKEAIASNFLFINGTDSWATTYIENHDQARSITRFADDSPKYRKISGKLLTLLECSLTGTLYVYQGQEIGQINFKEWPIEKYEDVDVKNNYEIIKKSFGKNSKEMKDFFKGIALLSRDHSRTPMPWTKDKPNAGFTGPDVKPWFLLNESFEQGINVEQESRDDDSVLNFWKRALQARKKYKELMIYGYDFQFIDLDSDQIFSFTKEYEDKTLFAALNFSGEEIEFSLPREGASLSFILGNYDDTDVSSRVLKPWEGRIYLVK

SMILES	IC50 [1, 3]	Inhibitory score [1]	other results
CCCCC/C=C\C/C=C\CCCCCCCC(=O)O [C18:2, linoleic acid]	–	–	IC50 [1]: 600 ± 10 nM
CCCCCCCC/C=C\CCCCCCCC(=O)OC(C)C [Isopropyl, isopropyl oleate]	600 ± 10 nM	1.67	–
CCCCCCCCCC(=O)O [C10:0, capric acid]	114000 ± 2370 nM	–	–
CCCCCCCC/C=C\CCCCCCCC(=O)O [cis-C18:1, Oleic acid]	810 ± 40 nM	–	Inhibitory score ([1]; listed as OA): 1.23
CCCCCCCC/C=C\CCCCCCCC(=O)OCCC [Propyl, propyl oleate]	1750 ± 40 nM	0.57	–
CCCCCCCC/C=C\CCCCCCCC(=O)OCCCCC [Pentyl, amyl oleate]	3210 ± 170 nM	0.31	–
CCCCCCCC/C=C\CCCCCCCC(=O)OCCCCCC [Hexyl, hexyl oleate]	4160 ± 210 nM	0.24	–
CCCCC/C=C\CC(O)CCCCCCCCC(=O)O (stereo not drawn) [10-HOA, 10-hydroxy-cis-12-octadecenoic acid]	–	2.58	IC50 [1]: 390 ± 10 nM
CCCCCCCCCCCC(=O)O [C12:0, lauric acid]	135000 ± 6430 nM	–	–
CC/C=C\C/C=C\C/C=C\CCCCCCCC(=O)O [C18:3, α-linolenic acid]	–	–	IC50 [1]: 540 ± 10 nM
CCCCCCCC/C=C\CCCCCCCC(=O)OCCCCCCCC [Octyl, octyl oleate]	3250 ± 80 nM	0.31	–
CCCCCCCC/C=C\CCCCCCCC(=O)OCCCC [Butyl, butyl oleate]	2340 ± 110 nM	0.43	–
CCCCCCCCC(O)CCCCCCCCC(=O)O (stereo not shown) [10-HSA, 10-hydroxystearic acid]	1710 ± 20 nM	0.58	–
CCCCCCCCCCCCCC(=O)O [C14:0, myristic acid]	56200 ± 2810 nM	–	–
CCCCCCCCC(O)/C=C/CCCCCCC(=O)O (stereo not shown) [10-hydroxy-8 (E)-octadecenoic acid]	–	–	inhibition of α-glucosidase [2]: useful inhibitor
CCCCCCCCCCCCCCCC(=O)O [C16:0, palmitic acid]	13970 ± 10 nM	–	–

— publication PMC10992144, “Construction of fatty acid derivatives from rubber seed oil as α-glucosidase inhibitors based on rubber seed oil” (Bioresources and Bioprocessing, 2022)
